Data published in paper PMC5697638, “Identification of a Potent Phosphoinositide 3‐Kinase Pan Inhibitor Displaying a Strategic Carboxylic Acid Group and Development of Its Prodrugs” (Chemmedchem, 2017).

Assays:
PC3 cells = assay: PC3 cell proliferation (MTT); assay type: cell-based; parameters: key to Cell proliferation: active: Active: able to reduce proliferation to an extent greater than 50 %; inactive: able to reduce proliferation to an extent less than 50 %; conditions: PC3 cells, 10 μM of each prodrug
Experimental: The biological activity of each prodrug was tested by analyzing their ability to decrease PC3 proliferation as a rapid test to evaluate the PI3Ks inhibitory activity after hydrolysis in a cell‐based assay. […] The choice of using such a cut‐off was due to the intent to identify rapidly which prodrug could be hydrolyzed in the assay to release the active compound. As expected, a good correlation between rate of hydrolysis and cellular activity was observed, and esters 64–68 and 70–73 were determined to be good candidates for topical use. We decided to focus our attention on ester 64, as its half‐life was a good compromise for a prodrug. The EC50 value of this ester was then evaluated on PC3 cells, and a value of (2.3±0.8) μM was obtained.
Cell proliferation: PC3 cell proliferation was measured with a 3‐(4,5‐dimethyl thiazol‐2‐yl)‐2,5‐diphenyltetrazolium bromide (MTT)‐based colorimetric assay (#11 465 007 001 Roche Diagnostic GmbH, Germany). PC3 cells were seeded in a 96‐well plate at a concentration of 10^4 cells mL^−1. PC3 cells were treated for 72 h with increasing concentrations of 64, and MTT was added. After ON solubilization of the MTT metabolite, formazan, the absorbance (λ=550–600 nm absorbance, with a reference wavelength of 650 nm) of each well was read in a multi‐well reader (Glomax multi detection system, Promega, model number 9301‐010). The percentage of proliferating cells was calculated by relating each absolute value to the control intended as PC3 cells treated with DMSO alone. An IC50 value was then derived by plotting all data on a dose–response curve (Graph Pad software) by using nonlinear regression fit (equation [log agonist] versus response).

[1] = metabolic stability in rat liver microsomes (RLM); assay type: in vitro ADME; conditions: RLM, 50 μM substrate, with NADPH; for substrate depletion: 60 min; for Residual microsomal substrate (t=60 min): LC–UV
Experimental: (§1) Twelve esters were prepared (see the Experimental Section for their synthesis and the Supporting Information for chromatographic methods) and evaluated in terms of metabolic stability. For this task, a combined approach based on microsomal and plasmatic stability assays was exploited considering the relevance of the plasmatic and hepatic tissues in esterase activity. Microsomal stability of the selected esters was evaluated by monitoring the disappearance of the substrate incubated in rat liver microsomes (RLM) at 50 μM concentration, in the presence of NADPH. In Table 4, the percentage of the remaining substrate, after incubation (t=60 min), with respect to the initial amount is reported. Overall, the compounds underwent a relevant metabolic transformation, and the substrate depletion ranged from 0 (for 76) to 100 % (for 70). This is mainly due to hydrolysis of the ester function, whereas the metabolites arising from the oxidation catalyzed by the NADPH‐dependent monooxygenase system were negligible from a quantitative point of view. Indeed, the main metabolite formed during the incubation of the esters was corresponding carboxyl derivative 37. […] Moreover, whereas CH2‐pyridin‐4‐yl ester 70 was completely metabolized, corresponding benzyl derivative 65 and piperonyl derivative 72 were more hydrolytically stable, and their residual substrates were 53 and 83 %, respectively. The hydrolytic stability of the selected esters was also evaluated by monitoring the depletion of the substrate incubated at a 50 μM concentration in mouse plasma over a period of 30 min. As expected, the plasmatic metabolic fate of the esters was characterized by the formation of 37 as the only metabolite (see Figure S4). The rate constant k [min^−1], derived for the substrate peak area versus time curve (single‐exponential decay equation—GraphPad Prism software, Inc., San Diego, CA (USA); see Figure S5) was used to calculate the in vitro half‐life t 1/2 [min], and the values are reported in Table 4.
Metabolic stability of PI3K inhibitors in RLM fraction
The standard incubation mixture (500 µL final volume), in 1.5 mL Eppendorf tubes, was carried out in a 50 mM TRIS-HCl buffer (pH 7.4) containing 3.3 mM MgCl2, 1.3 mM NADPNa2, 3.3 mM glucose 6-phosphate, 0.4 Units/mL glucose 6-phosphate dehydrogenase (NADPH regenerating system), acetonitrile as cosolvent (1% of final volume) and 50 µM of substrate. After pre-equilibration of the mixture, an appropriate volume of rat microsomal suspension was added to give a final protein concentration of 1 mg/mL. The mixture was shaken for 1 hour at 37°C and the reaction was quenched by diluting the samples with 500 µL of ice-cold acetonitrile. The samples were then centrifuged at 13,000 rpm for 10 min, and the supernatant was directly injected onto the HPLC column for analysis. Control incubations were performed without microsomes. […]
(§2) A Shimadzu HPLC system (Shimadzu, Kyoto, Japan), consisting of two LC-10AD Vp module pumps, an SLC-10A Vp system controller, an SIL-10AD Vp autosampler, and a DGU-14-A on-line degasser was used for the analysis. All the chromatographic separations were performed on a Phenomenex Luna C18 5µm (150 x 4.6 mm i.d.) (Phenomenex srl, Castel Bolognese, Italy) as a stationary phase protected by a Luna C18 SecurityGuard (Phenomenex srl). The SPD-M10Avp photodiode array detector was used to detect the analyte at 254 nm. LC Solution 1.24 software was used to process the chromatograms. Aliquots (20 µL) of supernatants obtained from incubations were injected onto the HPLC system and eluted with a mobile phase (flow rate: 1 mL/min) consisting of solvent A- 0.5% aqueous formic acid solution and solvent B- acetonitrile/methanol 80:20.
(§3) The eluants were filtered through a 0.45-µm pore size polyvinylidene difluoride membrane […]
(§4) The following gradients programs were used: […]

[2] = stability in mouse plasma; assay type: in vitro ADME; conditions: 50 μM substrate; for half-life at 50 µM: mouse, mouse plasma, 30 min incubation, 37 °C, read-out: Mouse plasma t 1/2; for hydrolysis by mouse plasma hydrolases: 30 min
Experimental: as §1, with “4. […]” for “4.”
Stability of PI3K inhibitors in mouse plasma
An aliquot of 460 µL of blank plasma spiked with substrate (50 µM, final concentration, DMSO 5%) was incubated at 37 °C for 30 minutes. Aliquots (70 µL) of the incubation took at 0-2-5-10-20, and 30 minutes were diluted with 140 µL of acetonitrile, homogenized, and centrifuged at 13,000 rpm for five minutes. Supernatants (20 µL) were injected onto HPLC.
as §2, §3, §4

Structure (SMILES): O=C(OCc1ccncc1)c1cccc(Cn2cc(-c3cccc4c(=O)cc(N5CCOCC5)[nH]c34)nn2)c1 [Compound 70, Pyridin‐4‐ylmethyl 3‐{[4‐(2‐morpholino‐4‐oxo‐1,4‐dihydroquinolin‐8‐yl)‐1H‐1,2,3‐triazol‐1‐yl]methyl}benzoate]
- Cell proliferation (PC3 cells): active
- substrate depletion [1]: 100%
- Residual microsomal substrate (t=60 min) [1]: 0%
- half-life at 50 µM [2]: < 1 min

Structure (SMILES): CCCCOC(=O)c1cccc(Cn2cc(-c3cccc4c(=O)cc(N5CCOCC5)[nH]c34)nn2)c1 [Compound 68, Butyl 3‐{[4‐(2‐morpholino‐4‐oxo‐1,4‐dihydroquinolin‐8‐yl)‐1H‐1,2,3‐triazol‐1‐yl]methyl}benzoate]
- Cell proliferation (PC3 cells): active
- Residual microsomal substrate (t=60 min) [1]: 53%
- half-life at 50 µM [2]: < 1 min

Structure (SMILES): CC(C)(C)OC(=O)c1cccc(Cn2cc(-c3cccc4c(=O)cc(N5CCOCC5)[nH]c34)nn2)c1 [Compound 69, tert ‐Butyl 3‐{[4‐(2‐morpholino‐4‐oxo‐1,4‐dihydroquinolin‐8‐yl)‐1H‐1,2,3‐triazol‐1‐yl]methyl}benzoate]
- Cell proliferation (PC3 cells): inactive
- Residual microsomal substrate (t=60 min) [1]: 79%
- hydrolysis by mouse plasma hydrolases [2]: inert to the mouse plasma hydrolases

Structure (SMILES): CCCCCCCCCCCCCCCCCCOC(=O)c1cccc(Cn2cc(-c3cccc4c(=O)cc(N5CCOCC5)[nH]c34)nn2)c1 [Compound 76, Octadecyl 3‐{[4‐(2‐morpholino‐4‐oxo‐1,4‐dihydroquinolin‐8‐yl)‐1H‐1,2,3‐triazol‐1‐yl]methyl}benzoate]
- Cell proliferation (PC3 cells): inactive
- substrate depletion [1]: 0%
- Residual microsomal substrate (t=60 min) [1]: 100%
- hydrolysis by mouse plasma hydrolases [2]: inert to the mouse plasma hydrolases

Structure (SMILES): CCCC(C)OC(=O)c1cccc(Cn2cc(-c3cccc4c(=O)cc(N5CCOCC5)[nH]c34)nn2)c1 (stereo not shown) [Compound 74, Pentan‐2‐yl 3‐{[4‐(2‐morpholino‐4‐oxo‐1,4‐dihydroquinolin‐8‐yl)‐1H‐1,2,3‐triazol‐1‐yl]methyl}benzoate]
- Cell proliferation (PC3 cells): inactive
- Residual microsomal substrate (t=60 min) [1]: 60%
- half-life at 50 µM [2]: 4.2 min

Structure (SMILES): O=C(OCc1ccccc1)c1cccc(Cn2cc(-c3cccc4c(=O)cc(N5CCOCC5)[nH]c34)nn2)c1 [Compound 65, Benzyl 3‐{[4‐(2‐morpholino‐4‐oxo‐1,4‐dihydroquinolin‐8‐yl)‐1H‐1,2,3‐triazol‐1‐yl]methyl}benzoate]
- Cell proliferation (PC3 cells): active
- Residual microsomal substrate (t=60 min) [1]: 53%
- half-life at 50 µM [2]: < 1 min

Structure (SMILES): O=C(OCCN1CCOCC1)c1cccc(Cn2cc(-c3cccc4c(=O)cc(N5CCOCC5)[nH]c34)nn2)c1 [Compound 71, 2‐Morpholinoethyl 3‐{[4‐(2‐morpholino‐4‐oxo‐1,4‐dihydroquinolin‐8‐yl)‐1H‐1,2,3‐triazol‐1‐yl]methyl}benzoate]
- Cell proliferation (PC3 cells): active
- Residual microsomal substrate (t=60 min) [1]: 18%
- half-life at 50 µM [2]: 2.5 min

Structure (SMILES): O=C(OCc1ccc2c(c1)OCO2)c1cccc(Cn2cc(-c3cccc4c(=O)cc(N5CCOCC5)[nH]c34)nn2)c1 [Compound 72, Benzo[d][1,3]dioxol‐5‐yl methyl 3‐{[4‐(2‐morpholino‐4‐oxo‐1,4‐dihydroquinolin‐8‐yl)‐1H‐1,2,3‐triazol‐1‐yl]methyl}benzoate]
- Cell proliferation (PC3 cells): active
- Residual microsomal substrate (t=60 min) [1]: 83%
- half-life at 50 µM [2]: < 1 min

Structure (SMILES): CC(C)OC(=O)c1cccc(Cn2cc(-c3cccc4c(=O)cc(N5CCOCC5)[nH]c34)nn2)c1 [Compound 66, Isopropyl 3‐{[4‐(2‐morpholino‐4‐oxo‐1,4‐dihydroquinolin‐8‐yl)‐1H‐1,2,3‐triazol‐1‐yl]methyl}benzoate]
- Cell proliferation (PC3 cells): active
- Residual microsomal substrate (t=60 min) [1]: 16%
- half-life at 50 µM [2]: 15.1 min

Structure (SMILES): CC(C)CCOC(=O)c1cccc(Cn2cc(-c3cccc4c(=O)cc(N5CCOCC5)[nH]c34)nn2)c1 [Compound 73, Isopentyl 3‐{[4‐(2‐morpholino‐4‐oxo‐1,4‐dihydroquinolin‐8‐yl)‐1H‐1,2,3‐triazol‐1‐yl]methyl}benzoate]
- Cell proliferation (PC3 cells): active
- Residual microsomal substrate (t=60 min) [1]: 39%
- half-life at 50 µM [2]: < 1 min

Structure (SMILES): CCCCCCCCCCCOC(=O)c1cccc(Cn2cc(-c3cccc4c(=O)cc(N5CCOCC5)[nH]c34)nn2)c1 [Compound 75, Undecyl 3‐{[4‐(2‐morpholino‐4‐oxo‐1,4‐dihydroquinolin‐8‐yl)‐1H‐1,2,3‐triazol‐1‐yl]methyl}benzoate]
- Cell proliferation (PC3 cells): inactive
- Residual microsomal substrate (t=60 min) [1]: 80%
- half-life at 50 µM [2]: 4.4 min

Structure (SMILES): CCOC(=O)c1cccc(Cn2cc(-c3cccc4c(=O)cc(N5CCOCC5)[nH]c34)nn2)c1 [Compound 67, Ethyl 3‐{[4‐(2‐morpholino‐4‐oxo‐1,4‐dihydroquinolin‐8‐yl)‐1H‐1,2,3‐triazol‐1‐yl]methyl}benzoate]
- Cell proliferation (PC3 cells): active
- Residual microsomal substrate (t=60 min) [1]: 24%
